Reference: US9220771B2, “Peptide for use in the treatment of breast cancer and/or bone metastases” (MERCK PATENT GMBH, priority 2010, dated 2015)

Tests used:
[1] = tested on: MDA-MB468 human breast tumour cells; assay: Study 007: MDA-MB-468 orthotopic primary tumor growth; format: in vivo, female BALB/c nu/nu mice; settings: all three dosing groups (75, 150 or 300 mg/kg), daily s.c.; Vehicle Control higher than 350 mm^3
Experimental: MDA-MB468 human breast tumour cells were orthotopically inoculated into the third mammary fat pad of female BALB/c nu/nu mice. The mice were randomised into groups when the tumors reached a size of approximately 40 mm^3.
The mice in each group received treatment with either Vehicle Control (Placebo) or EMD 121974 (75, 150 or 300 mg/kg) by daily subcutaneous injection. Body weight and tumour volume measurements were made for all mice three times per week.

[2] = tested on: U251 human glioblastoma cells; assay: Rat orthotopic glioblastoma model, radiotherapy and cilengitide scheduling, survival; format: in vivo, NIH rnu nude rats; settings: t-4 and t-8 h groups, cilengitide 4 mg/kg + 25 Gy
Experimental: NIH rnu nude rats are anaesthetized, restrained, and injected intracerebrally 1 mm retro orbitally, 3 mm to the right of the bregma and at a depth of 2.5 mm with 5×10E5 U251 human glioblastoma cells suspended in 10 ul of culture medium, using a #2701 Hamilton syringe fitted with a 26 gauge needle, essentially as previously described (Engebraaten et al., 1999). After 14 days, cilengitide (4 mg/kg) is given as an intraperitoneal bolus in PBS, at various time (8 h, 4 h, 2 h, 1 h) prior to a single treatment with single, collimated, dorsal-ventral beam of 6 MV x-rays, so that 95-100% of the central axis dose of 25 Gy hit the tumor volume (Kim et al., 1999). Each of the 7 subsequent days the animals also received an identical i.p. bolus of cilengitide. The animals are maintained under ad libitum food and drink until they become moribund, or are sampled for tissue analysis (in the t-4 and t-8 h groups, where the animals are healthy past 230 days post tumor injection). A Kaplan-Meier survival curve is calculated and plotted (FIG. 7) from the raw data (Table 2). All animals in the RT monotherapy group died by 120 d.

[3] = tested on: MDA-MB-231 breast cancer bone metastases; assay: Histology / immunofluorescence of experimental breast cancer bone metastases; format: in vivo, nude rats (RNU strain); settings: after 4 weeks treatment with cilengitide; control rats 8.8 μm; p<0.01
Experimental: At the end of the observation period lower limbs of each animal are amputated and muscular tissue removed. Bones with surrounding soft tissue tumors are stored in 70% ethanol and embedded in a methylmethacrylat-based compound (Technovit® 9100 NEU, Heraeus Kulzer, Hanau, Germany) according to the instructions of the manufacturer. 5 μm-thick sections are cut (Microm HM340e microtome; Thermo Scientific, Waltham, Mass.), mounted on SuperFrost Plus microscope slides and dried overnight at 60° C. Additional freshly removed soft tissue tumors are embedded in optimum cutting temperature compound (OCT, TissueTec, Sakura, Japan) and stored at −80° C. […] Mean positive area fractions of SMA and collagen IV (in percent) as well as mean vessel diameters (in μm) are determined from 4 representative animals of each group analyzing 10 fields of view chosen randomly from each rat using Analysis Software (cell^F; Olympus Soft Imaging Solutions, Münster, Germany). […]
For light microscopical analysis, sections are stained with Mayer's hematoxylin (Carl Roth, Karlsruhe, Germany) and eosin (Merck, Darmstadt, Germany), mounted using Eukitt mounting medium (O. Kindler, Freiburg, Germany) and analyzed using a microscope (DM LB; Leica, Wetzlar, Germany) equipped with a digital camera (DFC 320; Leica, Wetzlar, Germany). […]

[4] = tested on: Patients With Newly Diagnosed Glioblastoma (GBM); assay: Phase I/IIa trial of Cilengitide and temozolomide with concomitant radiotherapy; format: in vivo, human
Experimental: Purpose: To evaluate safety, toxicity, and efficacy of the combination of the cyclic RGD pentapeptide Cilengitide (=cyclo-(Arg-Gly-Asp-DPhe-NMe-Val)), an inhibitor of integrins αvβ3 and αvβ5, in addition to standard temozolomide (TMZ) and radiotherapy (RT).
Patients and methods: Fifty-two pts (PS 0-1: 92%, 2: 8%; median age 57 yrs) after biopsy (n=9/17%) or tumor resection (n=43/83%) were treated with standard TMZ/RT (Stupp et al. NEJM 2005). In addition Cilengitide (500 mg i.v., 2×/week) was started one week before TMZ/RT and given throughout for the duration of chemotherapy or until progression. Primary endpoint was progression free survival rate at 6 months (target: 65%). Patients were followed with MRI every 2 months. Histopathologic diagnosis and MRI imaging were independently reviewed, MGMT promotor methylation status was assessed in 45 (86.5%) pts.

[5] = tested on: MDA-MB-231 breast cancer bone metastases; assay: DCE-MRI of experimental breast cancer bone metastases (amplitude A, exchange rate constant kep); format: in vivo, nude rats (RNU strain); settings: cilengitide 75 mg/kg
Experimental: (§1) T2-weighted imaging is performed using a turbo spin echo sequence (orientation axial, TR 3240 ms, TE 81 ms, matrix 152×256, FOV 90×53.4 mm^2, slice thickness 1.5 mm, 3 averages, scan time 3 min 40 s). For dynamic contrast-enhanced MRI, a saturation recovery turbo flash sequence through the largest diameter of the tumor (orientation axial, TR 373 ms, TE 1.86 ms, matrix 192×144, FOV 130×97.5 mm, slice thickness 5 mm, measurements 512, averages 1, scan time 6 min 55 s) is used. After 20 s baseline, 0.1 mmol/kg Gd-DTPA (Magnevist; Bayer Schering Pharma, Berlin, Germany) is intravenously infused for a time period of 10 s.
Unenhanced VCT images and MRI-acquired T2-weighted images are analyzed using the Medical Imaging Interaction Toolkit (MITK, Heidelberg, Germany) to determine volumes of osteolytic lesions and soft tissue components, respectively. DCE-MRI acquired data is analyzed using the Dynalab workstation (Mevis Research, Bremen, Germany) according to the two-compartment model of Brix to determine the parameters amplitude A and exchange rate constant kep, as described.^23, 30 Briefly, the injected contrast media is distributed in both compartments (intravascular space and extravascular, interstitial space). The accumulation of contrast agent in these compartments over time is characterized by the amplitude A (associated with blood volume), whereas the exchange of contrast agent between the intravascular space and the interstitial space is characterized by the exchange rate constant kep (associated with vessel permeability). For determination of the respective values of the amplitude A and kep of bone metastases in our study, a region of interest is placed around the soft tissue component on color maps for A and kep, respectively, using the Dynalab workstation (Mevis Research, Bremen, Germany).
For each animal, volumes of the osteolysis and soft tissue component, amplitude A and exchange rate constant kep are plotted versus time after tumor cell inoculation (due to technical reasons one animal of the control group can not be evaluated for the amplitude A and kep). Normalization of the data to the corresponding initial value at day 30 for each animal is performed and changes are expressed in percent. For statistical comparisons of data from non-invasive imaging and histological analysis, the respective values are compared between the control and treatment groups using the two-sided Wilcoxon-Test; p-values <0.05 are considered significant.

[6] = tested on: MDA-MB-231 breast cancer bone metastases; assay: Experimental breast cancer bone metastases in nude rats: volumes of osteolytic lesions and soft tissue components by VCT and MRI; format: in vivo, nude rats (RNU strain); settings: for mean relative volume of soft tissue components (STC), increase compared to initial value at day 30 / mean relative volume of osteolytic lesions (OL), increase compared to initial value at day 30: cilengitide 75 mg/kg i.p. five times per week from day 30; for mean relative volume of soft tissue components (STC), increase compared to initial value at day 30: MRI
Experimental: For this purpose, nude rats bearing established breast cancer bone metastases are treated with cilengitide, a small molecule inhibitor of αvβ3 and αvβ5 integrins (75 mg/kg, five days per week; n=12 rats) and compared to vehicle treated control rats (n=12). In a longitudinal study, conventional magnetic resonance imaging (MRI) and flat panel volumetric computed tomography (VCT) are used to assess the volume of the soft tissue tumor and osteolysis, respectively, and dynamic contrastenhanced (DCE-) MRI is performed to determine functional parameters of the tumor vasculature reflecting blood volume and blood vessel permeability.
Nude rats (RNU strain) are obtained from Harlan-Winkelmann GmbH (Borchen, Germany) at the age of six weeks and housed in a specific pathogen-free environment in a mini barrier system of the central animal facility. Animals are kept under controlled conditions (21±2° C. room temperature, 60% humidity, 12 h light-dark rhythm) and offered autoclaved food and water ad libitum. Sub-confluent MDAMB- 231 cells are harvested using 0.05% Trypsin-EDTA (Gibco®; Invitrogen, Karlsruhe, Germany) counted on a Neubauer's chamber and resuspended in RPMI-1640 to a final concentration of 10^5 cells in 200 μl. Rats are anesthetized using a mixture of nitrous oxide (1 l/min), oxygen (0.5 l/min) and isoflurane (1.5 vol. %). Arterial branches of the right hind leg are dissected and 10^5 cells injected into the superficial epigastric artery as described previously.^28 Bone metastases established and are observed exclusively in the femur, tibia and fibula of the right hind leg. 30 days after cancer cell transplantation, rats (n=24) are randomly divided into two groups, one group receiving the cyclic RGD-peptide inhibitor of αvβ3/αvβ5 integrins (cilengitide, EMD 121974^14, 17, 29; Merck, Darmstadt, Germany) intraperitoneally five times per week in isotonic saline (75 mg/kg; n=12 rats) and the other, sham-treated group, serving as a control (n=12 rats). The observation period of all animals is 55 days and no rat in the study dies ahead of schedule.
After the inoculation of cancer cells each rat is imaged at days 30, 35, 45 and 55 using (i) a flat-panel equipped volumetric computed tomograph (Volume CT, Siemens, Germany) and (ii) a 1.5T clinical magnetic resonance scanner (Symphony, Siemens, Erlangen, Germany) equipped with a home-built receive-transmit coil (cylindrical volume resonator with an inner diameter of 83 mm and a usable length of 120 mm). Prior to in vivo imaging with VCT and MRI, rats aree anesthetized with nitrous oxide, oxygen and isoflurane as described above.
VCT imaging is obtained using the following parameters: tube voltage 80 kV, tube current 50 mA, scan time 51 s, rotation speed 10 s, frames per second 120, matrix 512×512, and slice thickness 0.2 mm. Image reconstructions are performed using a modified FDK (Feldkamp Davis Kress) cone beam reconstruction algorithm (kernel H80a; Afra, Erlangen, Germany).
as §1
Unenhanced VCT images and MRI-acquired T2-weighted images are analyzed using the Medical Imaging Interaction Toolkit (MITK, Heidelberg, Germany) to determine volumes of osteolytic lesions and soft tissue components, respectively. […]

[7] = tested on: HER2-positive advanced BRCA; settings: in combination with capecitabine, 2nd line; cited from earlier work
[8] = Cilengitide 500 mg i.v. 2x/week with TMZ/RT, of 52 patients

SMILES: CC(C)[C@H]1C(=O)N[C@@H](CCCN=C(N)N)C(=O)NCC(=O)N[C@@H](CC(=O)O)C(=O)N[C@H](Cc2ccccc2)C(=O)N1C [Cilengitide, cyclo-(Arg-Gly-Asp-DPhe-NMeVal)]
- tumour volume on day 60 [1]: below 200 mm^3
- time animals are healthy post tumor injection [2]: > 230 days
- mean vessel diameter in bone metastases [3]: 6.6 μm
- treatment related non-hematologic grade 3 toxicities ([4]; Cilengitide 500 mg i.v. 2x/week with TMZ/RT, 3/52 patients): 5.7%
- grade 3 constitutional symptoms (asthenia, fatigue, anorexia) [4, 8]: 3 n
- grade 3 deep venous thrombosis and pulmonary embolism [4, 8]: 1 n
- grade 3 elevated liver function tests [4, 8]: 1 n
- tolerability of the combination ([4]; Cilengitide and TMZ/RT): well tolerated
- DCE-MRI amplitude A (associated with blood volume), mean relative value ([5]; day 35, p>0.05 vs control): 97 % of initial value
- DCE-MRI exchange rate constant kep (associated with vessel permeability), mean relative value ([5]; day 35, p>0.05 vs control): 69 % of initial value
- DCE-MRI amplitude A (associated with blood volume), mean relative value ([5]; day 45, p<0.05 vs control): 102 % of initial value
- DCE-MRI exchange rate constant kep (associated with vessel permeability), mean relative value ([5]; day 45, p>0.05 vs control): 88 % of initial value
- DCE-MRI amplitude A (associated with blood volume), mean relative value ([5]; day 55, p<0.05 vs control): 93 % of initial value
- DCE-MRI exchange rate constant kep (associated with vessel permeability), mean relative value ([5]; day 55, p<0.05 vs control): 72 % of initial value
- mean relative volume of soft tissue components (STC), increase compared to initial value at day 30 ([6]; day 35): 2.2 fold
- mean relative volume of osteolytic lesions (OL), increase compared to initial value at day 30 ([6]; day 35, VCT): 1.5 fold
- mean relative volume of soft tissue components (STC), increase compared to initial value at day 30 ([6]; day 45, p<0.05 vs control): 4.9 fold
- mean relative volume of osteolytic lesions (OL), increase compared to initial value at day 30 ([6]; day 45, VCT, p<0.05 vs control): 2.4 fold
- mean relative volume of soft tissue components (STC), increase compared to initial value at day 30 ([6]; day 55, p<0.01 vs control): 6.3 fold
- mean relative volume of osteolytic lesions (OL), increase compared to initial value at day 30 ([6]; day 55, VCT, p<0.01 vs control): 3.5 fold
- rats showing new bone formation in the osteolytic lesion ([6]; treatment group (three of 12 rats), cilengitide 75 mg/kg, VCT, not seen in controls): 25%

SMILES: CS(=O)(=O)CCNCc1ccc(-c2ccc3ncnc(Nc4ccc(OCc5cccc(F)c5)c(Cl)c4)c3c2)o1 [Lapatinib]
- improvement of median time to progression compared to capecitabine alone [7]: 4 months
